One data set deals with T1, human FSH receptor (Homo sapiens, UniProt P23945).
T1 construct: host or cells: CHO-K1 (CHO FSH-R 6CRE-Luc, 1D7 cells)
T1 sequence (P23945 18-695): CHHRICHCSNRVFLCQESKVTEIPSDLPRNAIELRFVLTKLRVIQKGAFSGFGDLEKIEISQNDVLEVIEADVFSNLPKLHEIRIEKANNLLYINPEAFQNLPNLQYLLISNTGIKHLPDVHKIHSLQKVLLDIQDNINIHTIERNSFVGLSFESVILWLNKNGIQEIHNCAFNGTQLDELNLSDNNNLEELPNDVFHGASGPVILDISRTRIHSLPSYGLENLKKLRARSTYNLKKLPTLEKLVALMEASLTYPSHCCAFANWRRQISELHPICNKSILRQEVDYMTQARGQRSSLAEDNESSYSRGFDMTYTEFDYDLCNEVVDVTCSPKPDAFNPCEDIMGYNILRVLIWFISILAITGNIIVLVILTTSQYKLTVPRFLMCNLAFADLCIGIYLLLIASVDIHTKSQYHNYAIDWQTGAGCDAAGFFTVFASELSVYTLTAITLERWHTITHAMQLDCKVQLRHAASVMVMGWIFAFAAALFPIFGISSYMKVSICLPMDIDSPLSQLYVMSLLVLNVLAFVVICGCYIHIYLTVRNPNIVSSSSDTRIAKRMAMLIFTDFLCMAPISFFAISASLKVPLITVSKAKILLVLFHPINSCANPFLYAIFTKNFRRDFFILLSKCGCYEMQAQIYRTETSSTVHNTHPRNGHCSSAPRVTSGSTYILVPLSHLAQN
As to the kind of experiment: Follicle-Stimulating Hormone Receptor-Dependent Cre-Luciferase Reporter Gene Assay (CHO FSH-R 6CRE-Luc cells). To be noted: for inhibition at 30 µM: 2-dose format, concentration in parentheses 30 μM, inhibition of the response to EC50 of FSH; for IC50: dose-response format, in presence of EC50 of purified human FSH. The format is cell-based. The source says:
Follicle-Stimulating Hormone Receptor-Dependent Cre-Luciferase Reporter Gene Assay for the Identification of Follicle-Stimulating Hormone (FSH) Antagonists
A Chinese hamster ovarian cell line that stably produces the human FSH receptor and a luciferase reporter gene regulated by cAMP response elements was used to identify and determine the relative potencies of human FSH receptor antagonists. See for example, Kelton, C. A., et al. Mol. Cell. Endocrinol. 89:141-151 (1992), Tilly, J. L., et al. Endocrinology 131:799-806(1992), and George, S. E., et al. J. Biomol. Screening 2:235-240 (1997).
Compound Vehicle: Stock compounds were solubilized in an appropriate vehicle, e.g., phosphate buffered saline (PBS) or dimethyl sulfoxide (DMSO), at 30 mM. The compounds were subsequently diluted in DMSO to working dilutions of 1 and 20 or 30 mM for 2-dose testing format and 1 μM-10 mM for dose-response format. The DMSO dilutions were diluted 500-fold in sterile growth medium [D-MEM/F-12 (GIBCO/BRL; Grand Island, NY) containing 15 mM HEPES, 2 mM 1-glutamine, pyridoxine hydrochloride, phenol red and 5% FetalClone® II (HyClone Laboratories, Inc; Logan, Utah), 0.2% DMSO, 100 units penicillin G/ml, and 100 μg streptomycin sulfate/ml (GIBCO/BRL)]. The concentration of the vehicle in each of the compound dilutions was the same.
Positive Controls: Purified human FSH (>98%) was purchased from Cortex Biochem, Inc. (San Leandro, Calif.) and 3-[(2S*,5R*)-5-{[2-(1H-Indol-3-yl)-ethylcarbamoyl]-methyl}-4-oxo-2-(5-phenylethynyl-thiophen-2-yl)-thiazolidin-3-yl]-benzamide (an FSH-R thiazolidinone antagonist) was prepared by processes described by R. A. Scheuerman et al. in U.S. Pat. No. 6,426,357 (Affymax).
The CHO FSH-R 6CRE-Luc cells (1D7 cells) were obtained from Affymax (Palo Alto, Calif.). These Chinese hamster ovary cells (CHO-K1) were engineered genetically to stably express the recombinant human FSH receptor gene and a luciferase reporter gene under the regulation of 6 copies of a cAMP response element. The cells were plated one day prior to treatment into 96-well white opaque plates at a density of 50,000 cells/100 μl/well in growth medium. On the day of treatment, the growth medium was removed from the wells by aspiration and 50 μl of fresh growth medium was added to each well. The cells were incubated at 37° C. in a humidified incubator with 5% CO2/95% air.
The treated cells were incubated for 4 hours at 37° C. in a humidified incubator with 5% CO2/95% air. At the end of the incubation period, luciferase activity was measured by chemiluminescence using a commercially available kit (LucScreen, Tropix, Inc., Bedford, Mass.) according to the manufacturer's specifications, except that Buffer 1 and Buffer 2 were mixed together in equal proportion prior to the addition of 100 μl of the combined reagents to each well. Chemiluminescence was detected using a luminometer (EG & G Berthold Microlumat LB 96 P, Wallac, Gaithersburg, Md.) with chemiluminescence measured for 1 sec/well. Background luminescence was measured for each well prior to the addition of the LucScreen reagent.
In the 96-well 2-dose format, each compound was tested in duplicate at each dose. […] One plate was used to test a maximum of 22 compounds.
The EC50 of purified human FSH alone was tested in triplicate with each test compound. The doses chosen to test each compound were extrapolated from the initial 2-dose screening process. Along with the test compounds, purified human FSH also was tested in a dose response (0.03, 0.1, 0.3, 1, 3, 10, and 30 ng/ml) for a positive control and quality control. One plate was used for 3 test compounds and the FSH positive control.
Luciferase activity is expressed as relative light units/sec/well. Luciferase activity in antagonist was compared to the appropriate negative and positive controls. For 2-dose testing, results are reported as luciferase activity and are expressed as percent inhibition of the response obtained from the EC50 of FSH.
Background: A reporter such as luciferase makes a cellular process visible.

Structures are written as SMILES.

By inhibition is commonly meant the relative decrease from the control value, in per cent. As usually defined, the melting point is the temperature, or range, at which the solid turns liquid. Broadly, the IC50 is the concentration that gives 50% inhibition.

As to `COc1cc(C(=O)N2Cc3ccc(C(=O)NCc4ccc(Cl)cc4)n3Cc3ccccc32)ccc1-c1ccccc1C` [Example 43, N-(4-CHLOROBENZYL)-10-[(2-METHOXY-2′-METHYL-1,1′-BIPHENYL-4-YL)CARBONYL]-10,11-DIHYDRO-5H-PYRROLO[2,1-C][1,4]BENZODIAZEPINE-3-CARBOXAMIDE], the melting point fell in the range of 218 to 219 °C. Besides, the inhibition at 30 µM at human FSH receptor turned out to be 56%.
In the case of `COc1cc(C(=O)N2Cc3ccc(C(=O)NCc4ccc(OC(F)(F)F)cc4)n3Cc3ccccc32)ccc1-c1ccccc1C` [Example 45, 10-[(2-METHOXY-2′-METHYL-1,1′-BIPHENYL-4-YL)CARBONYL]-N-[4-(TRIFLUOROMETHOXY)BENZYL]-10,11-DIHYDRO-5H-PYRROLO[2,1-C][1,4]BENZODIAZEPINE-3-CARBOXAMIDE], the melting point was in the range of 145 to 149 °C. On human FSH receptor, the IC50 is above 30 µM.
Consider `COc1cc(C(=O)N2Cc3ccc(C(=O)NCc4ccc(C)cc4C)n3Cc3ccccc32)ccc1-c1ccccc1C` [Example 46, N-(2,4-DIMETHYLBENZYL)-10-[(2-METHOXY-2′-METHYL-1,1′-BIPHENYL-4-YL)CARBONYL]-10,11-DIHYDRO-5H-PYRROLO[2,1-C][1,4]BENZODIAZEPINE-3-CARBOXAMIDE], for which the melting point lay within 161 to 162 °C. Also, the inhibition at 30 µM at human FSH receptor was found to be 44%.
On to `COc1ccc(CCNC(=O)c2ccc3n2Cc2ccccc2N(C(=O)c2ccc(-c4ccccc4C)c(OC)c2)C3)cc1` [Example 47, 10-[(2-METHOXY-2′-METHYL-1,1′-BIPHENYL-4-YL)CARBONYL]-N-[2-(4-METHOXYPHENYL)ETHYL]-10,11-DIHYDRO-5H-PYRROLO[2,1-C][1,4]BENZODIAZEPINE-3-CARBOXAMIDE], for which the melting point was in the range of 193 to 195 °C. Moreover, on human FSH receptor, the IC50 was above 30 µM.
For `COc1cc(C(=O)N2Cc3ccc(C(=O)NCCc4ccc(C)cc4)n3Cc3ccccc32)ccc1-c1ccccc1C` [Example 48] the same measures were 190 to 192 °C and above 30 µM.
In the same order, the values of `COc1cc(C(=O)N2Cc3ccc(C(=O)NCCCCc4ccccc4)n3Cc3ccccc32)ccc1-c1ccccc1C` [Example 49, 10-[(2-METHOXY-2′-METHYL-1,1′-BIPHENYL-4-YL)CARBONYL]-N-(4-PHENYLBUTYL)-10,11-DIHYDRO-5H-PYRROLO[2,1-C][1,4]BENZODIAZEPINE-3-CARBOXAMIDE] are 154 to 159 °C and above 30 µM.
The molecule `COc1cc(C(=O)N2Cc3ccc(C(=O)NCC(c4ccccc4)c4ccccc4)n3Cc3ccccc32)ccc1-c1ccccc1C` [Example 50] displayed a melting point of 129 to 132 °C. The half-maximal inhibitory concentration (IC50) on human FSH receptor is above 30 µM.
For `COc1ccc(CCNC(=O)c2ccc3n2Cc2ccccc2N(C(=O)c2ccc(-c4ccccc4C)c(OC)c2)C3)cc1OC` [Example 52, N-[2-(3,4-DIMETHOXYPHENYL)ETHYL]-10-[(2-METHOXY-2′-METHYL-1,1′-BIPHENYL-4-YL)CARBONYL]-10,11-DIHYDRO-5H-PYRROLO[2,1-C][1,4]BENZODIAZEPINE-3-CARBOXAMIDE] the same measures were 150 to 154 °C and above 30 µM.
Consider `COc1cc(C(=O)N2Cc3ccc(C(=O)NCCc4ccc(Cl)cc4)n3Cc3ccccc32)ccc1-c1ccccc1C` [Example 53, N-[2-(4-CHLOROPHENYL)ETHYL]-10-[(2-METHOXY-2′-METHYL-1,1′-BIPHENYL-4-YL)CARBONYL]-10,11-DIHYDRO-5H-PYRROLO[2,1-C][1,4]BENZODIAZEPINE-3-CARBOXAMIDE], for which the melting point fell in the range of 195 to 196 °C. On human FSH receptor, the IC50 was above 30 µM.
`COc1cc(C(=O)N2Cc3ccc(C(=O)NCCCc4ccccc4)n3Cc3ccccc32)ccc1-c1ccccc1C` [Example 54, 10-[(2-METHOXY-2′-METHYL-1,1′-BIPHENYL-4-YL)CARBONYL]-N-(3-PHENYLPROPYL)-10,11-DIHYDRO-5H-PYRROLO[2,1-C][1,4]BENZODIAZEPINE-3-CARBOXAMIDE]: the melting point was found to be 191 °C. Besides, the inhibition at 30 µM at human FSH receptor came out at 46%.
The molecule `COc1cc(C(=O)N2Cc3ccc(C(=O)NCc4ccc(N(C)C)cc4)n3Cc3ccccc32)ccc1-c1ccccc1C` [Example 57, N-[4-(DIMETHYLAMINO)BENZYL]-10-[(2-METHOXY-2′-METHYL-1,1′-BIPHENYL-4-YL)CARBONYL]-10,11-DIHYDRO-5H-PYRROLO[2,1-C][1,4]BENZODIAZEPINE-3-CARBOXAMIDE] registered a melting point of 148 to 150 °C. The IC50 on human FSH receptor is above 30 µM.
For `COc1cc(C(=O)N2Cc3ccc(C(=O)NC(C)c4ccccc4)n3Cc3ccccc32)ccc1-c1ccccc1C` (centres unmarked) [Example 58] the same measures were 211 °C and above 30 µM.
For `COc1cc(C(=O)N2Cc3ccc(C(=O)NCCC(c4ccccc4)c4ccccc4)n3Cc3ccccc32)ccc1-c1ccccc1C` [Example 59, N-(3,3-DIPHENYLPROPYL)-10-[(2-METHOXY-2′-METHYL-1,1′-BIPHENYL-4-YL)CARBONYL]-10,11-DIHYDRO-5H-PYRROLO[2,1-C][1,4]BENZODIAZEPINE-3-CARBOXAMIDE] the same measures were 214 °C and above 30 µM.
For `COc1cc(C(=O)N2Cc3ccc(C(=O)NCC(O)c4ccccc4)n3Cc3ccccc32)ccc1-c1ccccc1C` (centres unmarked) [Example 63] the same measures were 214 to 215 °C and above 30 µM.
The molecule `COc1cc(C(=O)N2Cc3ccc(C(=O)NC4Cc5ccccc5C4)n3Cc3ccccc32)ccc1-c1ccccc1C` [Example 65, N-(2,3-DIHYDRO-1H-INDEN-2-YL)-10-[(2-METHOXY-2′-METHYL-1,1′-BIPHENYL-4-YL)CARBONYL]-10,11-DIHYDRO-5H-PYRROLO[2,1-C][1,4]BENZODIAZEPINE-3-CARBOXAMIDE] came in with a melting point of 230 to 231 °C. The IC50 on human FSH receptor is above 30 µM.
Molecule `COc1ccccc1-c1ccc(C(=O)N2Cc3ccc(C(=O)NCCc4ccc(O)cc4)n3Cc3ccccc32)cc1C` [Example 66, N-[2-(4-HYDROXYPHENYL)ETHYL]-10-[(2′-METHOXY-2-METHYL-1,1′-BIPHENYL-4-YL)CARBONYL]-10,11-DIHYDRO-5H-PYRROLO[2,1-C][1,4]BENZODIAZEPINE-3-CARBOXAMIDE] showed a melting point of 138 to 147 °C. Also, the IC50 at human FSH receptor is above 30 µM.
